From ChEMBL document CHEMBL1124941, “Assessment of the in vivo and in vitro opioid activity of bridged hexahydroaporphine and isoquinoline molecules” (J Med Chem, 1990)

Legend:
Mus musculus = species: Mus musculus; assay: Effective dose required for antinociceptive activity in mouse; format: functional
Opioid receptor [1] = target: T1, Opioid receptor (Rattus norvegicus, UniProt P33533+P34975+P33535); format: tissue-based, Brain
Description: Concentration that produces 50% inhibition of stereospecific [3H]naloxone binding to opioid receptors in rat brain in absence of sodium.

Opioid receptor [2] = target: T1, Opioid receptor; format: tissue-based, Brain; remark: listed apart in the source
Description: Concentration that produces 50% inhibition of stereospecific [3H]naloxone binding to opioid receptors in rat brain in presence of sodium.

| SMILES | ED50 (Mus musculus) | IC50 (Opioid receptor [1]) | IC50 (Opioid receptor [2]) |
| --- | --- | --- | --- |
| CN1CC[C@]23c4c5ccc(O)c4O[C@H]2[C@@H](O)C=C[C@H]3[C@H]1C5.CN1CC[C@]23c4c5ccc(O)c4O[C@H]2[C@@H](O)C=C[C@H]3[C@H]1C5.O=S(=O)(O)O | 0.0794 µg |  |  |
| COc1ccc2c(c1)C1CCC3CCC14C3CCN(C)C4C2.Cl (stereo not given) | 5.42 µg |  |  |
| CN1CCC2C3CCC4c5cc(O)ccc5CC1C42CC3.Cl (stereo not given) | 4.07 µg | 0.472 µM | 5.59 µM |
